Data from patent US6737383B1, “Herbicidal oxadiazolidines” (priority 1999, dated 2004).

Tests used:
bedstraw = experiment: Test B pre/postemergence bedstraw; assay type: in vivo, Galium aparine
How it was run: (§1)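 Test chemicals in a non-phytotoxic solvent mixture with surfactant were sprayed preemergence onto planted seeds and postemergence onto plants 2 to 18 cm tall (1- to 4-leaf stage). After twelve to sixteen days in a greenhouse, injury was visually rated against untreated controls from 0 (no effect) to 10 (complete control).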

blackgrass = experiment: Test B pre/postemergence blackgrass; assay type: in vivo, Alopecurus myosuroides
How it was run: as §1

soybean = experiment: Test B pre/postemergence soybean; assay type: in vivo, Glycine max
How it was run: as §1

velvetleaf = experiment: Test B pre/postemergence velvetleaf; assay type: in vivo, Abutilon theophrasti
How it was run: as §1

[1] = Postemergence, Rate 250 g/ha, scale 0 to 10
[2] = Postemergence, Rate 500 g/ha, scale of 0 to 10 where 0 is no effect and 10 is complete control
[3] = Rate 62 g/ha, Postemergence, scale of 0 to 10 where 0 is no effect and 10 is complete control
[4] = Rate 125 g/ha, Postemergence, scale 0 to 10, 0 is no effect, 10 is complete control
[5] = Preemergence, Rate 62 g/ha, scale 0 to 10 (0 no effect, 10 complete control)
[6] = Preemergence, Rate 125 g/ha, scale of 0 to 10 where 0 is no effect and 10 is complete control
[7] = Preemergence, Rate 250 g/ha, scale of 0 to 10 where 0 is no effect and 10 is complete control
[8] = Preemergence, Rate 500 g/ha, scale 0 to 10, 0 is no effect, 10 is complete control
[9] = Preemergence, Rate 250 g/ha, scale 0 to 10, 0 is no effect, 10 is complete control
[10] = Postemergence, Rate 62 g/ha, scale 0 to 10, 0 is no effect, 10 is complete control
[11] = Postemergence, Rate 250 g/ha, scale 0 to 10, 0 no effect, 10 complete control
[12] = Preemergence, Rate 62 g/ha, scale 0 to 10, 0 is no effect, 10 is complete control
[13] = Preemergence, Rate 125 g/ha, scale 0 to 10 (0 no effect, 10 complete control)
[14] = Preemergence, Rate 500 g/ha, scale 0 (no effect) to 10 (complete control)
[15] = Rate 125 g/ha, Postemergence, scale 0 to 10, 0 no effect, 10 complete control
[16] = Rate 500 g/ha, Postemergence, 0 to 10 scale (0 no effect, 10 complete control)
[17] = Postemergence, Rate 125 g/ha, scale of 0 to 10 where 0 is no effect and 10 is complete control
[18] = Preemergence, Rate 250 g/ha, scale 0 (no effect) to 10 (complete control)
[19] = Rate 62 g/ha, Preemergence, scale 0 to 10
[20] = Rate 500 g/ha, Postemergence, scale 0 to 10, 0 is no effect, 10 is complete control
[21] = Rate 500 g/ha, Preemergence, scale 0 to 10 (0 no effect, 10 complete control)
[22] = Rate 250 g/ha, Postemergence, scale 0 to 10, 0 is no effect, 10 is complete control
[23] = Preemergence, Rate 62 g/ha, scale of 0 to 10 where 0 is no effect and 10 is complete control
[24] = Preemergence, Rate 500 g/ha, scale of 0 to 10 where 0 is no effect and 10 is complete control
[25] = Rate 62 g/ha, Postemergence, scale 0 to 10 (0 no effect, 10 complete control)
[26] = Rate 125 g/ha, Postemergence, scale of 0 to 10 where 0 is no effect and 10 is complete control
[27] = Rate 250 g/ha, Postemergence, scale of 0 to 10 where 0 is no effect and 10 is complete control
[28] = Rate 500 g/ha, Postemergence, scale 0 to 10, 0 no effect, 10 complete control
[29] = Postemergence, Rate 125 g/ha, scale 0 to 10, 0 is no effect, 10 is complete control

## CC(C)N(C(=O)n1oc(=O)n(C[Si](C)(C)c2ccccc2)c1=O)c1ccc(Cl)cc1 [Compound 424]
bedstraw; [1]
  Bedstraw plant response rating: 0
bedstraw; [2]
  Bedstraw plant response rating: 0
bedstraw; [3]
  Bedstraw plant response rating: 0
bedstraw; [4]
  Bedstraw plant response rating: 0
blackgrass; [1]
  Blackgrass plant response rating: 0
blackgrass; [2]
  Blackgrass plant response rating: 0
blackgrass; [5]
  Plant response rating, Blackgrass: 0
blackgrass; [6]
  Plant response rating, Blackgrass: 0
blackgrass; [7]
  Blackgrass plant response rating: 0
blackgrass; [8]
  Blackgrass plant response rating: 0
blackgrass; [3]
  Blackgrass plant response rating: 0
blackgrass; [4]
  Blackgrass plant response rating: 0
soybean; [1]
  Soybean plant response rating: 1
soybean; [2]
  Soybean plant response rating: 2
soybean; [5]
  Plant response rating, Soybean: 0
soybean; [6]
  Plant response rating, Soybean: 0
soybean; [9]
  Soybean plant response rating: 0
soybean; [8]
  Soybean plant response rating: 0
soybean; [4]
  Soybean plant response rating: 0
velvetleaf; [1]
  Velvetleaf plant response rating: 0
velvetleaf; [2]
  Velvetleaf plant response rating: 0
velvetleaf; [5]
  Plant response rating, Velvetleaf: 0
velvetleaf; [6]
  Plant response rating, Velvetleaf: 0
velvetleaf; [9]
  Velvetleaf plant response rating: 0
velvetleaf; [8]
  Velvetleaf plant response rating: 0
velvetleaf; [4]
  Velvetleaf plant response rating: 0

## CC(C)N(C(=O)n1oc(=O)n(-c2ccccc2C(F)(F)F)c1=O)c1ccc(F)cc1 [Compound 15]
bedstraw; [10]
  Bedstraw plant response rating: 0
bedstraw; [11]
  Bedstraw plant response rating: 0
bedstraw; [12]
  Plant response rating, Bedstraw: 0
bedstraw; [13]
  Plant response rating, Bedstraw: 0
bedstraw; [7]
  Plant response rating, Bedstraw: 0
bedstraw; [14]
  Bedstraw plant response rating: 7
bedstraw; [15]
  Bedstraw plant response rating: 0
bedstraw; [16]
  Bedstraw plant response rating: 4
blackgrass; [10]
  Blackgrass plant response rating: 0
blackgrass; [11]
  Blackgrass plant response rating: 0
blackgrass; [12]
  Plant response rating, Blackgrass: 0
blackgrass; [13]
  Plant response rating, Blackgrass: 0
blackgrass; [7]
  Plant response rating, Blackgrass: 0
blackgrass; [14]
  Blackgrass plant response rating: 0
blackgrass; [15]
  Blackgrass plant response rating: 0
blackgrass; [16]
  Blackgrass plant response rating: 3
soybean; [10]
  Soybean plant response rating: 2
soybean; [11]
  Soybean plant response rating: 2
soybean; [12]
  Plant response rating, Soybean: 0
soybean; [13]
  Plant response rating, Soybean: 0
soybean; [14]
  Soybean plant response rating: 0
soybean; [15]
  Soybean plant response rating: 2
velvetleaf; [10]
  Velvetleaf plant response rating: 0
velvetleaf; [11]
  Velvetleaf plant response rating: 0
velvetleaf; [12]
  Plant response rating, Velvetleaf: 0
velvetleaf; [13]
  Plant response rating, Velvetleaf: 0
velvetleaf; [14]
  Velvetleaf plant response rating: 0
velvetleaf; [15]
  Velvetleaf plant response rating: 0

## CC(C)N(C(=O)n1oc(=O)n(CC2=NOCCO2)c1=O)c1ccc(Cl)cc1 [Compound 740]
bedstraw; [10]
  Plant response rating, Bedstraw: 0
bedstraw; [17]
  Bedstraw plant response rating: 0
bedstraw; [6]
  Plant response rating, Bedstraw: 0
bedstraw; [18]
  Bedstraw plant response rating: 0
bedstraw; [19]
  Bedstraw plant response rating: 0
bedstraw; [20]
  Bedstraw plant response rating: 0
bedstraw; [21]
  Bedstraw plant response rating: 0
blackgrass; [10]
  Plant response rating, Blackgrass: 3
blackgrass; [17]
  Blackgrass plant response rating: 3
blackgrass; [6]
  Plant response rating, Blackgrass: 6
blackgrass; [18]
  Blackgrass plant response rating: 8
blackgrass; [19]
  Blackgrass plant response rating: 3
blackgrass; [22]
  Blackgrass plant response rating: 4
blackgrass; [20]
  Blackgrass plant response rating: 7
blackgrass; [21]
  Blackgrass plant response rating: 9
soybean; [10]
  Plant response rating, Soybean: 2
soybean; [17]
  Soybean plant response rating: 3
soybean; [6]
  Plant response rating, Soybean: 0
soybean; [18]
  Soybean plant response rating: 0
soybean; [19]
  Soybean plant response rating: 0
soybean; [22]
  Soybean plant response rating: 4
soybean; [20]
  Soybean plant response rating: 6
soybean; [21]
  Soybean plant response rating: 0
velvetleaf; [10]
  Plant response rating, Velvetleaf: 0
velvetleaf; [17]
  Velvetleaf plant response rating: 0
velvetleaf; [6]
  Plant response rating, Velvetleaf: 0
velvetleaf; [18]
  Velvetleaf plant response rating: 0
velvetleaf; [19]
  Velvetleaf plant response rating: 0
velvetleaf; [22]
  Velvetleaf plant response rating: 2
velvetleaf; [20]
  Velvetleaf plant response rating: 2
velvetleaf; [21]
  Velvetleaf plant response rating: 3

## CC(C)N(C(=O)n1oc(=O)n(CCN(C)C(=O)c2ccccc2)c1=O)c1ccc(F)cc1 [Compound 741]
bedstraw; [10]
  Plant response rating, Bedstraw: 0
bedstraw; [17]
  Bedstraw plant response rating: 0
bedstraw; [6]
  Plant response rating, Bedstraw: 0
bedstraw; [18]
  Bedstraw plant response rating: 0
bedstraw; [19]
  Bedstraw plant response rating: 0
bedstraw; [22]
  Bedstraw plant response rating: 4
bedstraw; [20]
  Bedstraw plant response rating: 9
bedstraw; [21]
  Bedstraw plant response rating: 5
blackgrass; [10]
  Plant response rating, Blackgrass: 0
blackgrass; [17]
  Blackgrass plant response rating: 0
blackgrass; [6]
  Plant response rating, Blackgrass: 0
blackgrass; [18]
  Blackgrass plant response rating: 0
blackgrass; [19]
  Blackgrass plant response rating: 0
blackgrass; [22]
  Blackgrass plant response rating: 0
blackgrass; [20]
  Blackgrass plant response rating: 0
blackgrass; [21]
  Blackgrass plant response rating: 0
soybean; [10]
  Plant response rating, Soybean: 2
soybean; [17]
  Soybean plant response rating: 2
soybean; [6]
  Plant response rating, Soybean: 0
soybean; [18]
  Soybean plant response rating: 0
soybean; [19]
  Soybean plant response rating: 0
soybean; [22]
  Soybean plant response rating: 3
soybean; [20]
  Soybean plant response rating: 3
soybean; [21]
  Soybean plant response rating: 0
velvetleaf; [10]
  Plant response rating, Velvetleaf: 0
velvetleaf; [17]
  Velvetleaf plant response rating: 0
velvetleaf; [6]
  Plant response rating, Velvetleaf: 3
velvetleaf; [18]
  Velvetleaf plant response rating: 3
velvetleaf; [19]
  Velvetleaf plant response rating: 0
velvetleaf; [22]
  Velvetleaf plant response rating: 0
velvetleaf; [20]
  Velvetleaf plant response rating: 1
velvetleaf; [21]
  Velvetleaf plant response rating: 3

## CC(C)N(C(=O)n1oc(=O)n(Cc2nnsc2Cl)c1=O)c1ccccc1 [Compound 321]
bedstraw; [23]
  Bedstraw plant response rating: 0
bedstraw; [24]
  Bedstraw plant response rating: 3
bedstraw; [25]
  Bedstraw plant response rating: 0
bedstraw; [26]
  Bedstraw plant response rating: 4
bedstraw; [27]
  Plant response rating, Bedstraw: 8
blackgrass; [23]
  Blackgrass plant response rating: 3
blackgrass; Preemergence, Rate 125 g/ha
  Blackgrass plant response rating (0 to 10 scale): 6
blackgrass; [7]
  Blackgrass plant response rating: 6
blackgrass; [24]
  Blackgrass plant response rating: 7
blackgrass; [25]
  Blackgrass plant response rating: 0
blackgrass; [26]
  Blackgrass plant response rating: 0
blackgrass; [27]
  Plant response rating, Blackgrass: 0
blackgrass; [28]
  Blackgrass plant response rating: 4
soybean; [23]
  Soybean plant response rating: 0
soybean; Preemergence, Rate 125 g/ha
  Soybean plant response rating (0 to 10 scale): 0
soybean; [7]
  Soybean plant response rating: 0
soybean; [24]
  Soybean plant response rating: 0
soybean; [25]
  Soybean plant response rating: 2
soybean; [27]
  Plant response rating, Soybean: 3
velvetleaf; [23]
  Velvetleaf plant response rating: 0
velvetleaf; Preemergence, Rate 125 g/ha
  Velvetleaf plant response rating (0 to 10 scale): 0
velvetleaf; [7]
  Velvetleaf plant response rating: 0
velvetleaf; [24]
  Velvetleaf plant response rating: 0
velvetleaf; [25]
  Velvetleaf plant response rating: 0
velvetleaf; [26]
  Velvetleaf plant response rating: 0
velvetleaf; [27]
  Plant response rating, Velvetleaf: 0

## CC(C)N(C(=O)n1oc(=O)n(C2CCCO2)c1=O)c1ccc(F)cc1 (centres unmarked) [Compound 345]
bedstraw; [29]
  Plant response rating, Bedstraw: 0
bedstraw; [5]
  Plant response rating, Bedstraw: 0
bedstraw; Preemergence, Rate 125 g/ha
  Bedstraw plant response rating (0 to 10 scale): 0
bedstraw; [7]
  Bedstraw plant response rating: 0
bedstraw; [24]
  Bedstraw plant response rating: 0
bedstraw; [3]
  Bedstraw plant response rating: 0
bedstraw; [27]
  Plant response rating, Bedstraw: 0
bedstraw; [28]
  Plant response rating, Bedstraw: 0
blackgrass; [29]
  Plant response rating, Blackgrass: 0
blackgrass; [5]
  Plant response rating, Blackgrass: 0
blackgrass; Preemergence, Rate 125 g/ha
  Blackgrass plant response rating (0 to 10 scale): 0
blackgrass; [7]
  Blackgrass plant response rating: 0
blackgrass; [24]
  Blackgrass plant response rating: 0
blackgrass; [3]
  Blackgrass plant response rating: 0
blackgrass; [27]
  Plant response rating, Blackgrass: 0
blackgrass; [28]
  Plant response rating, Blackgrass: 0
soybean; [29]
  Plant response rating, Soybean: 0
soybean; Preemergence, Rate 125 g/ha
  Soybean plant response rating (0 to 10 scale): 0
soybean; [3]
  Soybean plant response rating: 0
soybean; [28]
  Plant response rating, Soybean: 0
velvetleaf; [29]
  Plant response rating, Velvetleaf: 0
velvetleaf; [5]
  Plant response rating, Velvetleaf: 0
velvetleaf; Preemergence, Rate 125 g/ha
  Velvetleaf plant response rating (0 to 10 scale): 0
velvetleaf; [7]
  Velvetleaf plant response rating: 0
velvetleaf; [24]
  Velvetleaf plant response rating: 0
velvetleaf; [3]
  Velvetleaf plant response rating: 0
velvetleaf; [28]
  Plant response rating, Velvetleaf: 0
